As a reminder, the IC50 is the concentration needed to halve the response being measured. A low value points to inhibition by little substance.

Test [1] concerns H292 cells. Set-up: method as in PMID 29892070. Conditions: Leu55 ND1 mutation to Phe in H292 cells; cited from earlier work.
The target of test [2] is T1, complex I in mitochondrial membranes (Mus musculus, UniProt P03888+Q91WD5+Q9DC70).
T1 construct: from tissue; host or cells: mouse (C57BL/6) heart mitochondria
The test can be described thus: NADH oxidation in mouse mitochondrial membranes. Conditions: M. musculus membranes 20 μg ml−1; ± SE. The class given is biochemical. The procedure:
(§1) All catalytic activity assays were conducted at 32°C in 96-well plates using a Molecular Devices Spectramax 384 plus plate reader. Catalysis was initiated by addition of 200 μM NADH and monitored at 340 and 380 nm (ε340–380 = 4.81 mM^−1 cm^−1). Linear rates were measured for all assays, inhibitors were added from dimethyl sulfoxide stock solutions as required, and inhibitor-insensitive rates (using either 1 μM piericidin A or 1.4 μM IACS-2858) were subtracted from each measured rate. Membrane samples were prepared as described previously ([17], [20], [59], [60]), diluted to 20 μg ml^−1 in 10 mM tris-SO4 (pH 7.5) and 250 mM sucrose, and supplemented with 3 μM horse heart cytochrome c (except for P. denitrificans, for which the activity is unaffected by the addition). Mouse, bovine, and yeast (Y. lipolytica) complex I were purified as described previously ([17], [20], [59]); diluted to 0.5 nM in 20 mM tris-HCl (pH 7.5), 0.15% asolectin, and 0.15% CHAPS; and assayed using either 200 μM dQ or 200 μM ubiquinone-1 (Sigma-Aldrich). Complex I was purified from P. denitrificans strain Pd1222 ([61]) and provided by O. D. Jarman (MRC Mitochondrial Biology Unit, University of Cambridge); it was assayed likewise but in 10 mM MES-HCl (pH 6.5), 25 mM NaCl, and 2 mM CaCl2. […]

For test [3], the system named is human cell line models and representative cell lines from mammalian species. On the set-up: method as in PMID 29892070. Conditions: mouse, monkey, dog and rat cell lines; cited from earlier work.
The target of test [4] is T2, complex I in mitochondrial membranes (Bos taurus, UniProt P03887+P17694+P42026).
T2 construct: Complex I from bovine heart were prepared; from tissue; host or cells: bovine heart mitochondria
Description: NADH oxidation in bovine mitochondrial membranes. The note with it: B. taurus membranes 20 μg ml−1; ± SE. Type of test: biochemical. The procedure: as §1

In test [5] the target is T3, bovine complex I (Bos taurus, UniProt P03887+P17694+P42026).
T3 construct: Complex I from bovine heart were prepared; from tissue; host or cells: bovine heart mitochondria
The test can be described thus: NADH:decylubiquinone oxidoreduction by purified bovine complex I. Type of test: biochemical. The note with it: purified B. taurus complex I, dQ; ± SE. On the procedure:
as §1

The target in test [6] is T4, complex I in bovine SMPs (Bos taurus, UniProt P03887+P17694+P42026).
T4 construct: Complex I from bovine heart were prepared; from tissue; host or cells: bovine heart mitochondria
The test can be described thus: Reverse electron transport (succinate oxidation-driven NAD+ reduction) in bovine heart submitochondrial particles. Type of test: biochemical. On the procedure:
(§2) All catalytic activity assays were conducted at 32°C in 96-well plates using a Molecular Devices Spectramax 384 plus plate reader. Catalysis was initiated by addition of 200 μM NADH and monitored at 340 and 380 nm (ε340–380 = 4.81 mM^−1 cm^−1). Linear rates were measured for all assays, inhibitors were added from dimethyl sulfoxide stock solutions as required, and inhibitor-insensitive rates (using either 1 μM piericidin A or 1.4 μM IACS-2858) were subtracted from each measured rate. Membrane samples were prepared as described previously ([17], [20], [59], [60]), diluted to 20 μg ml^−1 in 10 mM tris-SO4 (pH 7.5) and 250 mM sucrose, and supplemented with 3 μM horse heart cytochrome c (except for P. denitrificans, for which the activity is unaffected by the addition). Mouse, bovine, and yeast (Y. lipolytica) complex I were purified as described previously ([17], [20], [59]); diluted to 0.5 nM in 20 mM tris-HCl (pH 7.5), 0.15% asolectin, and 0.15% CHAPS; and assayed using either 200 μM dQ or 200 μM ubiquinone-1 (Sigma-Aldrich). Complex I was purified from P. denitrificans strain Pd1222 ([61]) and provided by O. D. Jarman (MRC Mitochondrial Biology Unit, University of Cambridge); it was assayed likewise but in 10 mM MES-HCl (pH 6.5), 25 mM NaCl, and 2 mM CaCl2. Bovine SMPs were prepared as described previously ([61]) and diluted to 20 μg ml^−1 in 10 mM tris-SO4 (pH 7.5) and 250 mM sucrose for FET and RET assays. The RET assay was initiated using 1 mM NAD^+, 1 mM ATP, 10 mM succinate, 1 mM cyanide, and 2 mM MgSO4, in the absence of NADH. AOX from Trypanosoma brucei brucei was prepared as described previously ([23]). Complex I proteoliposomes were assayed using 10 mM Mops-KOH (pH 7.5), 50 mM KCl, and AOX (10 μg ml^−1).

For test [7], the target named is T5, mouse complex I (Mus musculus, UniProt P03888+Q91WD5+Q9DC70).
T5 construct: from tissue; host or cells: mouse (C57BL/6) heart mitochondria
Description: NADH:decylubiquinone oxidoreduction by purified mouse complex I. The class given is biochemical. The procedure:
as §2

In test [8] the target is T6, yeast (Y. lipolytica) complex I (Yarrowia lipolytica, UniProt Q9B6E8+Q9UUT7+Q9UUU1).
T6 sequence (Q9B6E8 1-341): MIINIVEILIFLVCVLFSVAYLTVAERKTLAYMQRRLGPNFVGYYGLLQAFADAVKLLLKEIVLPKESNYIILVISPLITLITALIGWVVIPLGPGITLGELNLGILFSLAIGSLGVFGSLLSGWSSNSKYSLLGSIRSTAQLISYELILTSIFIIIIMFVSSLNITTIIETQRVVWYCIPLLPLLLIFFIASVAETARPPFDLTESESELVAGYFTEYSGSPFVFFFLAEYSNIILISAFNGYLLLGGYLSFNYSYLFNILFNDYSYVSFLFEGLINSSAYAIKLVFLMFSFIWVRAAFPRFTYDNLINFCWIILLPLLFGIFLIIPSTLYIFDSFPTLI
T6 sequence (Q9UUU1 22-466): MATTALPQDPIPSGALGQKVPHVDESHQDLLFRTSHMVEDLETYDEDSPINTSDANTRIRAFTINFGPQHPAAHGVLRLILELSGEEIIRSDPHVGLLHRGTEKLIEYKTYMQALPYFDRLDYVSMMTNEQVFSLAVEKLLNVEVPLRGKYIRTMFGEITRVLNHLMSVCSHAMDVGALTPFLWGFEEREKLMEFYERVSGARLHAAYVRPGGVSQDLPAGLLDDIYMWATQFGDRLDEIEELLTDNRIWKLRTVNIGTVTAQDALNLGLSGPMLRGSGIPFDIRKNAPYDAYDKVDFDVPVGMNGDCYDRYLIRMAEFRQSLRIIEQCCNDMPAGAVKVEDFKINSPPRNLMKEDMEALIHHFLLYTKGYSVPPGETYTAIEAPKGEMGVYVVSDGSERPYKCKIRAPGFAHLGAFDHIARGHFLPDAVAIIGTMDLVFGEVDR
T6 sequence (Q9UUT7 28-210): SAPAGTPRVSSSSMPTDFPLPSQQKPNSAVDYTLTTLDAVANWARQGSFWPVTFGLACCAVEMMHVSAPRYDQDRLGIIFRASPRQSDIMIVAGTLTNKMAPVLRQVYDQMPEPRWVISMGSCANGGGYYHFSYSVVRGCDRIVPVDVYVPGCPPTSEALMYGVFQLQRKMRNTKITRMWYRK
Description: NADH:decylubiquinone oxidoreduction by purified Y. lipolytica complex I. The class given is biochemical. The procedure: as §1

Test [9] deals with T7, complex I in mitochondrial membranes (Yarrowia lipolytica, UniProt Q9B6E8+Q9UUT7+Q9UUU1).
T7 sequence (Q9B6E8 1-341): T6 sequence (Q9B6E8 1-341)
T7 sequence (Q9UUU1 22-466): T6 sequence (Q9UUU1 22-466)
T7 sequence (Q9UUT7 28-210): T6 sequence (Q9UUT7 28-210)
The test can be described thus: NADH oxidation in Y. lipolytica mitochondrial membranes. Type of test: biochemical. On the procedure: as §1

Test [10] has as its target T8, complex I in bacterial membranes (Paracoccus denitrificans, UniProt P29916+P29918+P29920).
T8 construct: Complex I was purified from P. denitrificans strain Pd1222; endogenous in cells; host or cells: P. denitrificans strain Pd1222
The test can be described thus: NADH oxidation in P. denitrificans bacterial membranes. Type of test: biochemical. Conditions: P. denitrificans membranes 20 μg ml−1. The procedure: as §1

Test [11] addresses T4, complex I in bovine SMPs. The test can be described thus: Forward electron transport (NADH oxidation) in bovine heart submitochondrial particles. The class given is biochemical. The note with it: NADH oxidation rate, ± SE. The procedure: as §1
In test [12] the target is T9, P. denitrificans complex I (Paracoccus denitrificans, UniProt P29916+P29918+P29920).
T9 construct: Complex I was purified from P. denitrificans strain Pd1222; endogenous in cells; host or cells: P. denitrificans strain Pd1222
The test can be described thus: NADH:decylubiquinone oxidoreduction by purified P. denitrificans complex I. Type of test: biochemical. Conditions: dQ, pH 6.5. The procedure: as §1

The subject of test [13] is human DHODH. On the set-up: method as in PMID 15044733, PMID 9313772. Conditions: His-to-Ala mutation of the π-stacking partner; cited from earlier work.

Turning to `Cc1nc(-c2nc(-c3ccc(OC(F)(F)F)cc3)no2)nn1Cc1cccc(N2CCC(S(C)(=O)=O)CC2)c1` [IACS-010759], the loss of sensitivity result in test [1] is recorded as “up to 70 fold”. Besides, the IC50 in test [2] is 0.0069 ± 0.0004 µM; in test [4], 0.113 ± 0.004 µM; in [5] it was 0.739 ± 0.065 µM; in test [6] (bovine SMPs, succinate oxidation-driven NAD+ reduction rate, ± SE) it was 0.0123 ± 0.0006 µM; in test [7] (purified mouse complex I ~0.5 nM, 200 μM dQ, 200 μM NADH, 32°C, Hill slope constrained to −1, ± SE) it was 0.0479 µM; in [8], 6.3 ± 0.8 µM. Besides, the IC50 was around 170 µM in test [9], around 1600 µM in [10], 0.325 ± 0.025 µM in test [11] and around 22000 µM in [12]. In addition, in [3], the “variation in IC50 across cell lines” value is “up to 230 fold”. Moreover, the “inhibition of RET favoured over FET” value in test [6] (bovine heart SMPs, RET versus FET) is “more than 25 fold”. Besides, the “higher IC50 value than IACS-2858” value in test [7] turned out to be 17 fold.
As to `Cc1c(-c2ccc(-c3ccccc3F)cc2)nc2ccc(F)cc2c1C(=O)O` [brequinar], the reduction of sensitivity result in test [13] is given as “more than 100 fold”.

The values above are taken from publication PMC8121435, “Cork-in-bottle mechanism of inhibitor binding to mammalian complex I” (Science Advances, 2021).
